pIC50: −log10 of the molar value. Counter-ions that a name gives are not always drawn.
Assays:
GRK2 [1] = biological target: T1, GRK2 (Homo sapiens, UniProt P25098); test: GRK2 Degradation Assay and Western Blot in PAXF1657 cells; assay type: cell-based; design: endogenous in cells; host or cells: PAXF1657; details: for inhibition at 0.3 µM: Conc 0.3 uM; for inhibition at 0.3 µM / inhibition at 1 µM / inhibition at 3 µM: read-out: Degradation Assay - 3 point: Degradation (%); for inhibition at 1 µM: Conc 1 uM; for inhibition at 3 µM: Conc 3 uM; for DC50: PAXF1657, 24 h, read-out: Degradation Assay - Full Dose Response: IC50 (uM) [cell line: PAXF1657, time point: 24 h]
T1 sequence (P25098 1-689): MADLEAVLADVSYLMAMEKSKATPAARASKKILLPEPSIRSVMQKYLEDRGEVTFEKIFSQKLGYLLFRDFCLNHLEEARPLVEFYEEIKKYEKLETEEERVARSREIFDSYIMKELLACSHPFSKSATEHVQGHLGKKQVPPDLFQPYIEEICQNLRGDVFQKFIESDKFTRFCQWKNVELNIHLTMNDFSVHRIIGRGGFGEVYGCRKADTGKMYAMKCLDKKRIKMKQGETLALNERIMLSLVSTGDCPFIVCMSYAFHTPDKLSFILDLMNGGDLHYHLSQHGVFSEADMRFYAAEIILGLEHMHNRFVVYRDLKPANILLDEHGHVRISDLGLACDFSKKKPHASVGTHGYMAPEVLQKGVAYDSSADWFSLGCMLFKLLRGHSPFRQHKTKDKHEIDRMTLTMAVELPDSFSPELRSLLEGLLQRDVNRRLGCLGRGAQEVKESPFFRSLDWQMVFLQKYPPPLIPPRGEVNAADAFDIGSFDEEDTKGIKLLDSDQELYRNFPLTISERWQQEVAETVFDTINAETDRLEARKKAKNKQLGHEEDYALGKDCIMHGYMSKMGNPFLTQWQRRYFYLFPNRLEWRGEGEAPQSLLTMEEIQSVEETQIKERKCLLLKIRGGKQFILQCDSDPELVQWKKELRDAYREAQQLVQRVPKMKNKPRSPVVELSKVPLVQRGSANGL
Summary of the method: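 GRK2 degradation judged by immunoblot: NP40 lysates separated by SDS-PAGE and probed for GRK2 and β-actin, with HRP/ECL detection. Lysates came from PAXF1657 cells exposed to 0–10 μM compound for 6–24 h after reaching 70% confluency.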

GRK2 [2] = biological target: T1, GRK2; test: GRK2 Inhibition Assay (TR-FRET, Example 1); assay type: biochemical; details: Table 4; Example 1 assay; read-out: Enzymatic GRK2 IC50: Av IC50 GRK2
Summary of the method: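 TR-FRET phosphorylation readout: Eu anti-TopoIIα antibody with EDTA added after a 90 min RT kinase reaction of 1 nM GRK2, 7 μM ATP and 50 nM ULight-TopoIIα. Compounds were pre-incubated with enzyme 30 min at room temperature beforehand.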

PAXF1657 EV = test: 7-day cellular proliferation assay (CellTiter-Glo), PAXF1657 EV; assay type: cell-based; details: proliferation, read-out: GeoMean IC50 (UM) PAXF1657 EV
Summary of the method: (§1)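 Isogenic PAXF1657 pairs differing in GRK2 level (stable cDNA overexpression or CRISPR knockout, each with matched control) are seeded and allowed to attach overnight. Inhibitors span 30 μM-0.0002 μM in 0.3% DMSO for 3 plus 4 days at 37° C, 5% CO2, with a medium change between.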

PAXF1657 KO Clone #4 = test: 7-day cellular proliferation assay (CellTiter-Glo), PAXF1657 KO Clone #4; assay type: cell-based; details: proliferation, read-out: GeoMean IC50 (uM) PAXF1657 KO Clone #4
Summary of the method: as §1

SMILES	inhibition at 0.3 µM (GRK2 [1]) [%]	inhibition at 1 µM (GRK2 [1]) [%]	inhibition at 3 µM (GRK2 [1]) [%]	pIC50 (GRK2 [2])	pIC50 (PAXF1657 EV)	IC50 (PAXF1657 KO Clone #4) [µM]	DC50 (GRK2 [1]) [µM]
C[C@@H](NC(=O)c1cccc(NCc2nnc(-c3ccncn3)n2C)c1)c1cccc(C(=O)N2CCC(CCCN3CCN(c4ccc5c(c4)CN(C4CCC(=O)NC4=O)C5=O)CC3)CC2)c1 (stereo partly drawn) [Compound D119, N-((1R)-1-(3-(4-(3-(4-(2-(2,6-dioxopiperidin-3-yl)-1-oxoisoindolin-5-yl)piperazin-1-yl)propyl)piperidine-1-carbonyl)phenyl)ethyl)-3-((4-methyl-5-(pyrimidin-4-yl)-4H-1,2,4-triazol-3-yl)methylamino)benzamide hydrochloride]	90	93.7	89	7.79	6.94	2.73	–
C[C@@H](NC(=O)c1cccc(NCc2nnc(-c3ccncn3)n2C)c1)c1cccc(C(=O)N2CCC(CCN3CCN(c4ccc5c(c4)CN(C4CCC(=O)NC4=O)C5=O)CC3)CC2)c1 (stereo partly shown) [Compound D120]	90.8	94.8	89.6	8.02	7.40	> 30	–
C[C@@H](NC(=O)c1cccc(NCc2nnc(-c3ccncn3)n2C)c1)c1cccc(C(=O)N2CC(CN3CCN(c4ccc5c(c4)CN(C4CCC(=O)NC4=O)C5=O)CC3)C2)c1 (stereo partly drawn) [Compound D121, N-((1R)-1-(3-(3-((4-(2-(2,6-dioxopiperidin-3-yl)-1-oxoisoindolin-5-yl)piperazin-1-yl)methyl)azetidine-1-carbonyl)phenyl)ethyl)-3-((4-methyl-5-(pyrimidin-4-yl)-4H-1,2,4-triazol-3-yl)methylamino)benzamide hydrochloride]	7.97	24	53.8	7.35	4.94	> 30	–
C[C@@H](NC(=O)c1cccc(NCc2nnc(-c3ccncn3)n2C)c1)c1cccc(C(=O)N2CCC(CN3CCN(c4ccc5c(c4)CN(C4CCC(=O)NC4=O)C5=O)CC3)CC2)c1 (stereo partly drawn) [Compound D122, N-((1R)-1-(3-(4-((4-(2-(2,6-dioxopiperidin-3-yl)-1-oxoisoindolin-5-yl)piperazin-1-yl)methyl)piperidine-1-carbonyl)phenyl)ethyl)-3-((4-methyl-5-(pyrimidin-4-yl)-4H-1,2,4-triazol-3-yl)methylamino)benzamide hydrochloride]	84.9	90.6	92.5	7.91	7.00	> 30	–
C[C@@H](NC(=O)c1cccc(NCc2nnc(-c3ccncn3)n2C)c1)c1ccc(OCCCCCCOCCOCCOCCCC(=O)N2CCN(c3ccc4c(c3)CN(C3CCC(=O)NC3=O)C4=O)CC2)cc1 (stereo partly drawn) [Compound D124, N-((1R)-1-(4-(6-(2-(2-(4-(4-(2-(2,6-dioxopiperidin-3-yl)-1-oxoisoindolin-5-yl)piperazin-1-yl)-4-oxobutoxy)ethoxy)ethoxy)hexyloxy)phenyl)ethyl)-3-((4-methyl-5-(pyrimidin-4-yl)-4H-1,2,4-triazol-3-yl)methylamino)benzamide]	80.5	90.7	89.3	8.27	7.05	> 30	0.1
C[C@@H](NC(=O)c1cccc(NCc2nnc(-c3ccncn3)n2C)c1)c1ccc(OCCCCCCOCCOCCOCCCC(=O)N2CCN(c3cc4c(cc3F)C(=O)N(C3CCC(=O)NC3=O)C4=O)CC2)cc1 (stereo partly drawn) [Compound D125, N-((1R)-1-(4-(6-(2-(2-(4-(4-(2-(2,6-dioxopiperidin-3-yl)-6-fluoro-1,3-dioxoisoindolin-5-yl)piperazin-1-yl)-4-oxobutoxy)ethoxy)ethoxy)hexyloxy)phenyl)ethyl)-3-((4-methyl-5-(pyrimidin-4-yl)-4H-1,2,4-triazol-3-yl)methylamino)benzamide]	71.9	82.5	76.4	8.95	6.96	26.6	–
C[C@@H](NC(=O)c1cccc(NCc2nnc(-c3ccncn3)n2C)c1)c1ccc(OCCCCCCOCCOCCOCCCC(=O)Nc2cccc3c2CN(C2CCC(=O)NC2=O)C3=O)cc1 (stereo partly drawn) [Compound D127, N-((1R)-1-(4-(6-(2-(2-(4-(2-(2,6-dioxopiperidin-3-yl)-1-oxoisoindolin-4-ylamino)-4-oxobutoxy)ethoxy)ethoxy)hexyloxy)phenyl)ethyl)-3-((4-methyl-5-(pyrimidin-4-yl)-4H-1,2,4-triazol-3-yl)methylamino)benzamide]	81.4	82.1	78.5	8.66	7.00	> 30	–
C[C@@H](NC(=O)c1cccc(NCc2nnc(-c3ccncn3)n2C)c1)c1cccc(OCCCCN2CCN(c3ccc4c(c3)CN(C3CCC(=O)NC3=O)C4=O)CC2)c1 (stereo partly drawn) [Compound D129, N-((1R)-1-(3-(4-(4-(2-(2,6-dioxopiperidin-3-yl)-1-oxoisoindolin-5-yl)piperazin-1-yl)butoxy)phenyl)ethyl)-3-((4-methyl-5-(pyrimidin-4-yl)-4H-1,2,4-triazol-3-yl)methylamino)benzamide]	79.8	77.5	70.6	7.55	7.00	> 30	0.08

The next lines start with results.

inhibition at 0.3 µM (GRK2 [1]) [%]	inhibition at 1 µM (GRK2 [1]) [%]	inhibition at 3 µM (GRK2 [1]) [%]	pIC50 (GRK2 [2])	SMILES	pIC50 (PAXF1657 EV)	IC50 (PAXF1657 KO Clone #4) [µM]	DC50 (GRK2 [1]) [µM]
81.6	85.2	84	8.18	C[C@@H](NC(=O)c1cccc(NCc2nnc(-c3ccncn3)n2C)c1)c1cccc(OCCCN2CCN(c3ccc4c(c3)CN(C3CCC(=O)NC3=O)C4=O)CC2)c1 (stereo partly drawn) [Compound D123, N-((1R)-1-(3-(3-(4-(2-(2,6-dioxopiperidin-3-yl)-1-oxoisoindolin-5-yl)piperazin-1-yl)propoxy)phenyl)ethyl)-3-((4-methyl-5-(pyrimidin-4-yl)-4H-1,2,4-triazol-3-yl)methylamino)benzamide hydrochloride]	> 9.34	> 30	0.03
93.2	94.1	88	8.34	C[C@@H](NC(=O)c1cccc(NCc2nnc(-c3ccncn3)n2C)c1)c1cccc(OCCCCCCOCCN2CCN(c3ccc4c(c3)CN(C3CCC(=O)NC3=O)C4=O)CC2)c1 (stereo partly drawn) [Compound D126, N-((1R)-1-(3-(6-(2-(4-(2-(2,6-dioxopiperidin-3-yl)-1-oxoisoindolin-5-yl)piperazin-1-yl)ethoxy)hexyloxy)phenyl)ethyl)-3-((4-methyl-5-(pyrimidin-4-yl)-4H-1,2,4-triazol-3-yl)methylamino)benzamide]	6.89	> 30	0.04
-23.2	8.53	-38.6	7.79	C[C@@H](NC(=O)c1cccc(NCc2nnc(-c3ccncn3)n2C)c1)c1cccc(OCCN2CCN(c3ccc4c(c3)CN(C3CCC(=O)NC3=O)C4=O)CC2)c1 (stereo partly drawn) [Compound D128, N-((1R)-1-(3-(2-(4-(2-(2,6-dioxopiperidin-3-yl)-1-oxoisoindolin-5-yl)piperazin-1-yl)ethoxy)phenyl)ethyl)-3-((4-methyl-5-(pyrimidin-4-yl)-4H-1,2,4-triazol-3-yl)methylamino)benzamide]	6.10	> 30	–

From patent publication US20240174637A1, “DEGRADERS OF GRK2 AND USES THEREOF” (Sonata Therapeutics, Inc., priority 2021, published 2024)
